# Measurements published in patent US20230398227A1, “MEDICINE FOR TREATING CANCER” (CHIOME BIOSCIENCE INC., priority 2020, published 2023).
# Legend:
# [1] = tested on: human hepatic cancer cell line Hep3B xenograft; assay: Antitumor effect in Hep3B xenograft therapeutic model, HuBA-1-3D and CH518324/Debio1347; type: in vivo, mice; details: alone or combined
# Excerpt: In each group, a mouse whose tumor volume exceeded 1,500 mm^3 was sacrificed at that point of time.
# [2] = biological target: FGFR4 (Homo sapiens, UniProt P22455); details: reported in Mol Cancer Ther (2014); 13(11); 2547-58; read-out: tyrosine kinase inhibitory activity (IC50) against FGFR4; cited from earlier work
# [3] = tested on: human hepatic cancer cell line Hep3B xenograft; assay: Antitumor effect in Hep3B xenograft therapeutic model, HuBA-1-3D and BLU-554; type: in vivo, mouse; details: alone or combined
# Excerpt: (§1) In an attempt to further verify the enhancing effect on antitumor activity upon combined administration of HuBA-1-3D antibody and FGFR4 inhibitor as in the case of the above examples, the antitumor effect obtained upon combined administration of BLU-554 and HuBA-1-3D was studied in a xenograft therapeutic model based on the human hepatic cancer cell line Hep3B, wherein BLU-554 inhibits FGFR4-specific tyrosine kinase activity by specifically binding to cysteine at amino acid position 552 of the ATP-binding region present in the region located at amino acid positions 545 to 562 of FGFR4 (Cancer Discov. 2019 December; 9(12):1696-1707), as in the case of H3B-6527 and FGF-401.
# Hep3B cells (1×10^6 cells) were transplanted (Day 0), and at the point of time when the mean tumor volume exceeded 100 mm^3 (Day 14), animals were divided into the following 4 groups and administered from the same day: • the Vehicle group (N=8); • the group receiving BLU-554 (30 mg/kg body weight, twice a day) (N=8); • the group receiving HuBA-1-3D (1 mg/kg body weight) (N=8); and • the group receiving BLU-554 (30 mg/kg body weight) and HuBA-1-3D (1 mg/kg body weight) (N=8).
# HuBA-1-3D was intraperitoneally administered once a day 4 times in total on Days 14, 17, 21 and 24, while BLU-554 was orally administered twice a day 10 times in total on Days 14, 15, 16, 17, 18, 21, 22, 23, 24 and 25. […]
# [4] = tested on: Hep3B xenograft tumor; assay: Immunostaining for Ki-67 and cleaved caspase-3 in Hep3B xenograft tumor at 48 hours after administration; type: in vivo, NOD-SCID mice; details: HuBA-1-3D 1 mg/kg i.p., H3B-6527 50 mg/kg, FGF-401 10 mg/kg, BLU-554 30 mg/kg oral, alone or combined
# Experimental: (§2) Hep3B cells (1×10^6 cells) were transplanted subcutaneously into the right flank of NOD-SCID mice. At the stage where the tumor volume reached 250 to 350 mm 3, these mice were divided into the following 8 groups of 6 mice each, and administered from the same day: • the Vehicle group; • the group receiving HuBA-1-3D (1 mg/kg); • the group receiving H3B-6527 (50 mg/kg); • the group receiving FGF-401 (10 mg/kg); • the group receiving BLU-554 (30 mg/kg); • the group receiving HuBA-1-3D (1 mg/kg)+H3B-6527 (50 mg/kg); • the group receiving HuBA-1-3D (1 mg/kg)+FGF-401 (10 mg/kg); and • the group receiving HuBA-1-3D (1 mg/kg)+BLU-554 (30 mg/kg).
# (§3) HuBA-1-3D was intraperitoneally administered, while FGFR4 inhibitors (H3B-6527, FGF-401 and BLU-554) were orally administered. At 48 hours after administration, three mice in each group were sacrificed to excise their tumors, and the tumors were fixed in 10% formalin and then embedded in paraffin to prepare sections for immunostaining. In addition, tissue extracts were prepared for Western blotting.
# Cancer cell proliferation and apoptosis in the Hep3B tumor at 48 hours after administration were analyzed by immunostaining in which Ki-67 or cleaved caspase-3 expression was used as an indicator.
# [5] = tested on: Hep3B xenograft tumor; assay: Western blotting of apoptosis markers and cyclin B1 in Hep3B xenograft tumor at 48 hours after administration; type: in vivo, NOD-SCID mice; details: three animals per group, HuBA-1-3D 1 mg/kg, H3B-6527 50 mg/kg, FGF-401 10 mg/kg, BLU-554 30 mg/kg
# Experimental: as §2, §3
# Subsequently, apoptosis (cleaved caspase-3 and Cleaved PARP) and cancer cell proliferation (cyclin B1) in the Hep3B xenograft tumor upon administration of each agent were analyzed by Western blotting.
# [6] = tested on: human hepatic cancer cell line Hep3B xenograft; assay: Antitumor effect in Hep3B xenograft therapeutic model, HuBA-1-3D and FGF-401; type: in vivo, NOD-SCID mice; details: alone or combined
# Excerpt: as §1, with “Then, in” for “In”, “(FGF-401),” for “as in the case of the above examples,”, “FGF-401” for “BLU-554”, “(Mol. Cancer Ther.” for “(Cancer Discov.”, “18(12):2194-2206),” for “9(12):1696-1707),”, “H3B-6527.” for “H3B-6527 and FGF-401.”
# Hep3B cells (1×10^6 cells) were transplanted subcutaneously into the right flank of NOD-SCID mice (Day 0). At the stage where the mean tumor volume exceeded 100 mm^3 (Day 14), the mice were divided into the following 6 groups, and administered from the same day: • the Vehicle group (N=8); • the group receiving FGF-401 (10 mg/kg body weight, twice a day) (N=8); • the group receiving HuBA-1-3D (0.3 mg/kg body weight) (N=8); • the group receiving HuBA-1-3D (1 mg/kg body weight) (N=8); • the group receiving FGF-401 (10 mg/kg body weight) and HuBA-1-3D (0.3 mg/kg body weight) (N=8); and • the group receiving FGF-401 (10 mg/kg body weight) and HuBA-1-3D (1 mg/kg body weight) (N=8).
# HuBA-1-3D was intraperitoneally administered once a day 4 times in total on Days 14, 17, 21 and 24, while FGF-401 was orally administered twice a day 10 times in total on Days 14, 15, 16, 17, 18, 21, 22, 23, 24 and 25. The combined administration of HuBA-1-3D and FGF-401 was performed 4 times in total on Days 14, 17, 21 and 24. In each group, a mouse whose tumor volume exceeded 1,500 mm^3 was sacrificed at that point of time.
# [7] = tested on: human hepatic cancer cell line Hep3B xenograft; assay: Antitumor effect in Hep3B xenograft therapeutic model, HuBA-1-3D and H3B-6527; type: in vivo, NOD-scid mice; details: alone or combined
# Excerpt: The antitumor effect obtained upon combined administration of HuBA-1-3D antibody and H3B-6527 serving as a small molecule inhibitor against FGFR4 (Cancer Res. 2017 Dec. 15; 77(24):6999-7013) was studied in a xenograft therapeutic model based on the human hepatic cancer cell line Hep3B. • (1) Hep3B cells were transplanted subcutaneously into the right flank of NOD-scid mice (Day 0). At the stage where the mean tumor volume reached around 100 mm^3 (Day 14), the mice were divided into the following 6 groups, and administered from the same day for 11 days with HuBA-1-3D at a frequency of twice a week (Days 14, 18, 22 and 25) and/or with H3B-6527 twice a day (BID) and five times a week in a cycle of administration for 5 days and withdrawal for 2 days (Days 14, 15, 16, 17, 18, 21, 22, 23, 24 and 25): • the Vehicle group (N=8) • the group receiving H3B-6527 (50 mg/kg body weight, twice a day) (N=8); • the group receiving HuBA-1-3D (0.3 mg/kg body weight) (N=8); • the group receiving HuBA-1-3D (1 mg/kg body weight) (N=8); • the group receiving H3B-6527 (50 mg/kg body weight) and HuBA-1-3D (0.3 • mg/kg body weight) (N=8); and • the group receiving H3B-6527 (50 mg/kg body weight) and HuBA-1-3D (1 mg/kg body weight) (N=8).
# The tumor volume was measured at a frequency of twice a week, and an animal whose tumor volume reached 1,500 mm^3 was excluded from observation.
# Sequence of FGFR4 (P22455 22-802): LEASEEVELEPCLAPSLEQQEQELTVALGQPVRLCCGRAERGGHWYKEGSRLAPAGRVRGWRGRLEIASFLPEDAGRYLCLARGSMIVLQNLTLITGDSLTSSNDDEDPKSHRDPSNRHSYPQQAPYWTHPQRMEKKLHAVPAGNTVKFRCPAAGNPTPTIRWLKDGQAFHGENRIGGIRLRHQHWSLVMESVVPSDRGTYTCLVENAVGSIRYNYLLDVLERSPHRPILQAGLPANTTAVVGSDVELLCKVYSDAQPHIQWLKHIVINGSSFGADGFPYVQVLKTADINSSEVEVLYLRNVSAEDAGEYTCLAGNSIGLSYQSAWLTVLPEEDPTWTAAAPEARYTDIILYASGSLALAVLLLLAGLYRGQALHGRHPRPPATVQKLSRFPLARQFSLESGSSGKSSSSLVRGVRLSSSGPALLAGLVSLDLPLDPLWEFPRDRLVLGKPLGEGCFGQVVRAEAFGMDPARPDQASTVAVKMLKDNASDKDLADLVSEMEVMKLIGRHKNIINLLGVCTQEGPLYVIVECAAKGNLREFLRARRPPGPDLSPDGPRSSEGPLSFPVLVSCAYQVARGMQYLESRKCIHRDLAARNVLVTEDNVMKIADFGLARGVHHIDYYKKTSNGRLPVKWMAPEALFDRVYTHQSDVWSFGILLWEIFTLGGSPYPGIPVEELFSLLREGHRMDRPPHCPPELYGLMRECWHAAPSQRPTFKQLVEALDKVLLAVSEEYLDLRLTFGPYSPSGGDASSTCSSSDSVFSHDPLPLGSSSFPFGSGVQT
SMILES,"mean tumor volume ([1]; Day 31 (6 days after final administration), CH518324/Debio1347 50 mg/kg once a day oral, HuBA-1-3D 1 mg/kg i.p.)","T/C ([1]; Day 31, vs Vehicle, CH518324/Debio1347 50 mg/kg, HuBA-1-3D 1 mg/kg)",IC50 [2],"mean tumor volume ([3]; Day 38 (13 days after final administration), BLU-554 30 mg/kg twice a day oral, HuBA-1-3D 1 mg/kg i.p.)","T/C ([3]; Day 38, vs Vehicle, BLU-554 30 mg/kg, HuBA-1-3D 1 mg/kg)",apoptotic cells stained with cleaved caspase-3 in the tumor [4],proportion of cancer cells stained with Ki-67 compared to the Vehicle group [4],expression level of cyclin B1 (cell proliferation marker) compared to the Vehicle group [5],expression of apoptosis markers (Cleaved caspase-3 and cleaved PARP) [5],"tumor volume ([6]; Day 28 (3 days after final administration), FGF-401 10 mg/kg twice a day oral, HuBA-1-3D 1 mg/kg i.p.)","T/C ([6]; Day 28, vs Vehicle, FGF-401 10 mg/kg, HuBA-1-3D 1 mg/kg)","antitumor effect compared to tumor volume in the Vehicle group ([6]; Day 35 (10 days after final administration), FGF-401 10 mg/kg, HuBA-1-3D 1 mg/kg, Dunnett)","tumor volume ([7]; Day 32 (7 days after completion of administration), H3B-6527 50 mg/kg twice a day, HuBA-1-3D 1 mg/kg twice a week)","T/C ([7]; Day 32, vs Vehicle, H3B-6527 50 mg/kg twice a day, HuBA-1-3D 1 mg/kg)","tumor volume ([7]; Day 38 (13 days after final administration), H3B-6527 50 mg/kg, HuBA-1-3D 1 mg/kg)","tumor presence / tumor disappearance at excision (animals) ([7]; Day 38, H3B-6527 50 mg/kg, HuBA-1-3D 1 mg/kg)","tumor weight ([7]; tumors excised on Day 38, H3B-6527 50 mg/kg, HuBA-1-3D 1 mg/kg)"
Cc1nc2ccc(-n3ncc(C(=O)c4cc5ccccc5[nH]4)c3N)cc2[nH]1 [CH518324/Debio1347],673.8±271.8 mm^3,56.2%,290 nM,–,–,–,–,–,–,–,–,–,–,–,–,–,–
"C=CC(=O)N[C@H]1CCOC[C@H]1Nc1ncc2cc(-c3c(Cl)c(OC)cc(OC)c3Cl)ccc2n1 [BLU-554, N-[(3 S,4S)-3-[[6-(2,6-dichloro-3,5-dimethoxyphenyl)quinazolin-2-yl]amino]oxan-4-yl]prop-2-enamide]",–,–,–,688.8±562.4 mm^3,63.7%,not detected,no change,no difference,induced in none of the three animals,–,–,–,–,–,–,–,–
"COCCNc1cc(NC(=O)N2CCCc3cc(CN4CCN(C)CC4=O)c(C=O)nc32)ncc1C#N [FGF-401, N-[5-cyano-4-[(2-methoxyethyl)amino]-2-pyridinyl]-7-formyl-3,4-dihydro-6-[(4-methyl-2-oxo-1-piperazinyl)methyl]-1,8-naphthyridine-1(2H)-carboxamide]",–,–,–,–,–,not detected,no change,no difference,induced in none of the three animals,388.9±94.8 mm^3,56.8%,significant antitumor effect,–,–,–,–,–
"C=CC(=O)Nc1cc(N2CCN(CC)CC2)ccc1Nc1cc(N(C)C(=O)Nc2c(Cl)c(OC)cc(OC)c2Cl)ncn1 [H3B-6527, N-{2-[(6-{[(2,6-dichloro-3,5-dimethoxyphenyl)carbamoyl](methyl)amino}-4-pyrimidinyl)amino]-5-(4-ethyl-1-piperazinyl)phenyl}acrylamide]",–,–,–,–,–,not detected,no change,no difference,induced in none of the three animals,–,–,–,647.8±146.2 mm^3,47%,1222.0±326.5 mm^3,all the 8 animals in each group were confirmed to have tumor,1.010 ± 0.260 g
